Values quoted from earlier work, collected in patent publication US7041655B1, “Capillary membrane stabilization and reduction of tissue injury through use of IV biodegradable macromolecules with antioxidants and/or other chemicals” (priority 1996, dated 2006).

Key:
[1] = used for fluid replacement therapy
[2] = in 24 hours; molecules below 50,000 daltons rapidly eliminated by renal excretion
[3] = intravenous infusion

Substance	toxic reactions observed [1]	part of a given total dose appearing in the urine [2]	duration of improved hemodynamic status of the subject [3]	time over which the expansion of plasma volume decreases ([3]; expansion slightly in excess of the volume infused)
dextran	Few toxic reactions	–	–	–
hydroxyethyl starch	Few toxic reactions	approximately 40%	≥ 24 h	24 to 36 h
